Patent US7235536B2, “Cellulose sulfate and other sulfated polysaccharides to prevent and treat papilloma virus infection and other infections” (Rush Presbyterian-St. Luke's Medical Center, priority 2000, dated 2007)
Like-named read-outs stand apart in the source and are kept apart here. Marks after values point to notes of the source that are not given here.

Legend:
[1] = test system: Peptostreptococcus magnus
Prevotella bivia = experiment: Broth method MIC; assay type: cell-based
Fusobacterium nucleatum [2] = test system: Fusobacterium nucleatum
HPV-11 = experiment: RT-PCR ELISA for transient infection of human A431 cells, HPV-11; assay type: cell-based, human papilloma virus; conditions: with virus (HPV-11)
Method: Cellulose sulfate and dextran sulfate were each prepared as a 2 mg/ml solution in 0.9% NaCl and tested for microbicidal activity using the in vitro HPV transient infection assay originally described by Smith and colleagues (Smith, L. H., C. Foster, M. E. Hitchcock, and R. Isseroff. 1993. In vitro HPV-11 infection of human foreskin. J. Invest. Dermatol. 101:292-295) with some modifications (Ludmerer, S. W., W. L. McClements, X. M. Wang, J. C. Ling, K. U. Jansen, and N. D. Christensen. 2000. HPV11 mutant virus-like parties elicit immune responses that neutralize virus and delineate a novel neutralizing domain. Virology 266:237-245). An ELISA-based read-out of Optical Density (OD) values using alkaline phosphatase cleavage of the substrate p-nitrophenyl phosphate was also used to measure HPV infection as described below.
A modification of the RT-PCR assay that incorporates an ELISA-based read-out (Boehringer-Mannheim) was also included to assess microbicidal activity. Replicate cell cultures of A431 cells were infected with an aliquot of infectious HPV virions as described above. After 4 days of culture, cells were harvested and RNA extracted. RNA was subjected to RT using downstream anti-sense (reverse) primers for HPV-11 or HPV-40 and β-actin (as a control/housekeeping cellular transcript) to initiate cDNA synthesis. The cDNA was processed through 2 sets of 30 cycles of PCR amplification using nested primers: the second set of cycles used digoxygenin (DIG)-dUTP to label the PCR products with DIG. DIG-labeled PCR products were denatured then renatured together with a biotinylated oligonucleotide specific for the targeted PCR product. Biotinylated products were detected in ELISA with plates coated with streptavidin (to capture the biotinylated target PCR product) then anti-DIG antibody and substrate. Labeled PCR products were added directly to ELISA plates, or titrated at 10-fold dilutions in duplicate for each cell culture for each virus dilution.

[3] = test system: Fusobacterium gonidiaformans; experiment: Broth method MIC; assay type: cell-based; conditions: for CS MIC: Broth (study 2)
[4] = test system: Peptostreptococcus magnus; experiment: Broth method MIC; assay type: cell-based; conditions: for CS MIC: Broth (study 2)
Escherichia coli = experiment: Microbial challenge of CS gel; assay type: cell-based
Method: (§1) 6% CS was prepared in water as a translucent gel. Twenty grams of the gel was placed in a plastic screw-cap centrifuge tube. The microbial inoculants were prepared, gently vortexed and 0.1 ml inoculant was aseptically pipetted into the 20.0 gram gel. This procedure was repeated for each microbial organism. The samples were incubated at room temperature (20-25° C.) for 14 days or 28 days. The microbes tested and their theoretical yields can be found in Table F. After 14 or 28 days incubation, dilutions (10^−1, 10^−2, 10^−3) of the gels were made in saline and 1 ml plated onto Sabouraud dextrose (Aspergillus and Candida) or onto tryptic soy (other microbes). The number of organisms that grew after 3-7 days at room temperature were counted.
(§2) In another study, CS was dissolved in water at the concentrations indicated below. No other ingredients, including preservatives, were added. The gels were challenged with microbes as described above except that the gels were examined for the presence of microbes after 1, 2, 3, 4 and 7 days. The amount of microbes origially inoculated in the gels is also shown below.

Pseudomonas aeruginosa = experiment: Microbial challenge of CS gel; assay type: cell-based
Method: as §1, §2

Prevotella intermedia = experiment: Broth method MIC; assay type: cell-based; conditions: for CS MIC: Broth (study 2)
Fusobacterium nucleatum [5] = experiment: Broth method MIC; assay type: cell-based; conditions: for CS MIC: Broth (study 2)
[6] = test system: Prevotella melaminogenica; experiment: Broth method MIC; assay type: cell-based; conditions: for CS MIC: Broth (study 2)
[7] = test system: Porphyromonas asaccharolytica; experiment: Agar method MIC; assay type: cell-based; conditions: for CS MIC: Agar
Gardnerella vaginalis = experiment: Broth method MIC; assay type: cell-based; conditions: for CS MIC: Broth (study 2)

For sodium cellulose sulfate, the “CS MIC” value [1] was >0.625** mg/ml, the “growth inhibition” value (Prevotella bivia; all strains) was “inhibited” and the “CS MIC” value (Prevotella bivia; rma# 11683, Broth (study 1)) was “NI (not inhibited by 10 mg/ml (the highest concentration tested))”. For the same substance, the “CS MIC” value (Prevotella bivia; rma# 11683, Broth (study 2)) was 5000 µg/mL, the “CS MIC” value (Prevotella bivia; rma# 11697, Broth (study 1)) was 600 µg/mL and the “CS MIC” value (Prevotella bivia; rma# 11697, Broth (study 2)) was 5000 µg/mL. The “CS MIC” value (Fusobacterium nucleatum [2]) was >0.625** mg/ml, the “Mean (SD) of O.D. reading for RT-PCR ELISA, HPV-11 probe” value (from here on “Mean (SD) of O.D. reading”) (HPV-11; 10 μg/ml at viral pretreatment) was 1.485 (0.045) O.D and the “Mean (SD) of O.D. reading” value (HPV-11; 100 μg/ml at viral pretreatment) was 0.049 (0.001) O.D. The “Mean (SD) of O.D. reading” value (HPV-11; 1000 μg/ml at viral pretreatment) was 0.038 (0.001) O.D, the “growth inhibition” value ([3]; both strains, broth method) was “inhibited” and the “CS MIC” value ([3]; rma# 11423) was 5000 µg/mL. For the same substance, the “CS MIC” value ([3]; rma# 11653) was 5000 µg/mL, the “growth inhibition” value ([4]; all strains) was “inhibited” and the “CS MIC” value ([4]; rma# 11598) was 5000 µg/mL. For the same substance, the “CS MIC” value ([4]; rma# 11658) was 5000 µg/mL, the “inactivation of Escherichia” value (Escherichia coli; 6% CS gel) was “completely inactivated” and the “Day 14 CFU/g” value (Escherichia coli; 6% CS gel, ATCC 8739, room temperature, Day 14) was 0 CFU/g. The “Day 28 CFU/g” value (Escherichia coli; 6% CS gel, ATCC 8739, room temperature, Day 28) was 0 CFU/g, the “Escherichia coli CFU” value (Escherichia coli; CS 0.06% in water, 24 hours) was 0 CFU × 10^5/ml and the “Escherichia coli CFU” value (Escherichia coli; CS 0.06% in water, 48 hours) was 1.15 CFU × 10^5/ml. For the same substance, the “Escherichia coli CFU” value (Escherichia coli; CS 0.06% in water, 72 hours) was 1.21 CFU × 10^5/ml, the “Escherichia coli CFU” value (Escherichia coli; CS 0.06% in water, 96 hours) was 0.13 CFU × 10^5/ml and the “Escherichia coli CFU” value (Escherichia coli; CS 0.06% in water, 7 days) was 1.12 CFU × 10^5/ml. For the same substance, the “Escherichia coli CFU” value (Escherichia coli; CS 0.6% in water, 24 hours) was 5.6 CFU × 10^5/ml, the “Escherichia coli CFU” value (Escherichia coli; CS 0.6% in water, 48 hours) was 5.81 CFU × 10^5/ml and the “Escherichia coli CFU” value (Escherichia coli; CS 0.6% in water, 72 hours) was 4.43 CFU × 10^5/ml. The “Escherichia coli CFU” value (Escherichia coli; CS 0.6% in water, 96 hours) was 6.92 CFU × 10^5/ml, the “Escherichia coli CFU” value (Escherichia coli; CS 0.6% in water, 7 days) was 4.39 CFU × 10^5/ml and the “Escherichia coli CFU” value (Escherichia coli; CS 1.2% in water, 24 hours) was 0.98 CFU × 10^5/ml. For the same substance, the “Escherichia coli CFU” value (Escherichia coli; CS 1.2% in water, 48 hours) was 3.125 CFU × 10^5/ml, the “Escherichia coli CFU” value (Escherichia coli; CS 1.2% in water, 72 hours) was 1.625 CFU × 10^5/ml and the “Escherichia coli CFU” value (Escherichia coli; CS 1.2% in water, 96 hours) was 4.54 CFU × 10^5/ml. The “Escherichia coli CFU” value (Escherichia coli; CS 1.2% in water, 7 days) was 3.78 CFU × 10^5/ml, the “Escherichia coli CFU” value (Escherichia coli; CS 6% in water, 24 hours) was 0 CFU × 10^5/ml and the “Escherichia coli CFU” value (Escherichia coli; CS 6% in water, 48 hours) was 0.01 CFU × 10^5/ml. For the same substance, the “Escherichia coli CFU” value (Escherichia coli; CS 6% in water, 72 hours) was 0 CFU × 10^5/ml, the “Escherichia coli CFU” value (Escherichia coli; CS 6% in water, 96 hours) was 0 CFU × 10^5/ml and the “Escherichia coli CFU” value (Escherichia coli; CS 6% in water, 7 days) was 0 CFU × 10^5/ml. For the same substance, the “inactivation of Escherichia” value (Escherichia coli; lower CS concentrations (except 0.06% CS gel), no growth occurs) was “either not inactivated or only to a minor extent”, the “inactivation of Pseudomonas” value (Pseudomonas aeruginosa; 6% CS gel) was “completely inactivated” and the “Day 14 CFU/g” value (Pseudomonas aeruginosa; 6% CS gel, ATCC 9027, room temperature, Day 14) was 0 CFU/g. The “Day 28 CFU/g” value (Pseudomonas aeruginosa; 6% CS gel, ATCC 9027, room temperature, Day 28) was 0 CFU/g, the “Pseudomans aeruginosa CFU” value (Pseudomonas aeruginosa; CS 0.06% in water, 24 hours) was 0 CFU × 10^5/ml and the “Pseudomans aeruginosa CFU” value (Pseudomonas aeruginosa; CS 0.06% in water, 48 hours) was 0.48 CFU × 10^5/ml. The “Pseudomans aeruginosa CFU” value (Pseudomonas aeruginosa; CS 0.06% in water, 72 hours) was 1.125 CFU × 10^5/ml, the “Pseudomans aeruginosa CFU” value (Pseudomonas aeruginosa; CS 0.06% in water, 96 hours) was 1.87 CFU × 10^5/ml and the “Pseudomans aeruginosa CFU” value (Pseudomonas aeruginosa; CS 0.06% in water, 7 days) was 2.04 CFU × 10^5/ml. The “Pseudomans aeruginosa CFU” value (Pseudomonas aeruginosa; CS 0.6% in water, 24 hours) was 5.43 CFU × 10^5/ml, the “Pseudomans aeruginosa CFU” value (Pseudomonas aeruginosa; CS 0.6% in water, 48 hours) was 6.80 CFU × 10^5/ml and the “Pseudomans aeruginosa CFU” value (Pseudomonas aeruginosa; CS 0.6% in water, 72 hours) was 4.43 CFU × 10^5/ml. For the same substance, the “Pseudomans aeruginosa CFU” value (Pseudomonas aeruginosa; CS 0.6% in water, 96 hours) was 6.92 CFU × 10^5/ml, the “Pseudomans aeruginosa CFU” value (Pseudomonas aeruginosa; CS 0.6% in water, 7 days) was 6.05 CFU × 10^5/ml and the “Pseudomans aeruginosa CFU” value (Pseudomonas aeruginosa; CS 1.2% in water, 24 hours) was 2.08 CFU × 10^5/ml. For the same substance, the “Pseudomans aeruginosa CFU” value (Pseudomonas aeruginosa; CS 1.2% in water, 48 hours) was 2.625 CFU × 10^5/ml, the “Pseudomans aeruginosa CFU” value (Pseudomonas aeruginosa; CS 1.2% in water, 72 hours) was 2.31 CFU × 10^5/ml and the “Pseudomans aeruginosa CFU” value (Pseudomonas aeruginosa; CS 1.2% in water, 96 hours) was 2.82 CFU × 10^5/ml. For the same substance, the “Pseudomans aeruginosa CFU” value (Pseudomonas aeruginosa; CS 1.2% in water, 7 days) was 4.79 CFU × 10^5/ml, the “Pseudomans aeruginosa CFU” value (Pseudomonas aeruginosa; CS 6% in water, 24 hours) was 0 CFU × 10^5/ml and the “Pseudomans aeruginosa CFU” value (Pseudomonas aeruginosa; CS 6% in water, 48 hours) was 0 CFU × 10^5/ml. The “Pseudomans aeruginosa CFU” value (Pseudomonas aeruginosa; CS 6% in water, 72 hours) was 0 CFU × 10^5/ml, the “Pseudomans aeruginosa CFU” value (Pseudomonas aeruginosa; CS 6% in water, 96 hours) was 0 CFU × 10^5/ml and the “Pseudomans aeruginosa CFU” value (Pseudomonas aeruginosa; CS 6% in water, 7 days) was 0 CFU × 10^5/ml. For the same substance, the “inactivation of Pseudomonas” value (Pseudomonas aeruginosa; lower CS concentrations) was “not inactivated but growth was prevented”, the “growth inhibition” value (Prevotella intermedia; all strains) was “inhibited” and the “CS MIC” value (Prevotella intermedia; rma# 11142) was 10000 µg/mL. For the same substance, the “CS MIC” value (Prevotella intermedia; rma# 11168) was 10000 µg/mL, the “growth inhibition” value (Fusobacterium nucleatum [5]; both strains, broth method) was “inhibited” and the “CS MIC” value (Fusobacterium nucleatum [5]; rma# 10481) was 5000 µg/mL. For the same substance, the “CS MIC” value (Fusobacterium nucleatum [5]; rma# 11518) was 10000 µg/mL, the “growth inhibition” value ([6]; at the concentrations tested) was “Neither one of the strains of Prevotella melaminogenica were inhibited” and the “CS MIC” value ([6]; rma# 5657) was “NI (not inhibited by 10 mg/ml (the highest concentration tested))”. The “CS MIC” value ([6]; rma# 9052) was “NI (not inhibited by 10 mg/ml (the highest concentration tested))”, the “lowest concentration of compound that inhibited growth” value ([7]; Example 8, agar, 48 hours anaerobic, highest tested 625 μg/ml) was 80 µg/mL and the “CS MIC” value ([7]; rma# 11612) was 80 µg/mL. For the same substance, the “CS MIC” value ([7]; rma# 11656) was over 625 µg/mL, the “growth inhibition” value (Gardnerella vaginalis; both strains) was “inhibited” and the “CS MIC” value (Gardnerella vaginalis; rma# 12066) was 5000 µg/mL. For the same substance, the “CS MIC” value (Gardnerella vaginalis; rma# 12262) was 5000 µg/mL.
